The source made the active and inactive calls.

The source of these data is ChEMBL document CHEMBL3991601, “The target landscape of clinical kinase drugs” (Science, 2017).

Test [1] addresses T1, STE20-related kinase adapter protein alpha (Homo sapiens, UniProt Q7RTN6).
T1 sequence (Q7RTN6 whole entry): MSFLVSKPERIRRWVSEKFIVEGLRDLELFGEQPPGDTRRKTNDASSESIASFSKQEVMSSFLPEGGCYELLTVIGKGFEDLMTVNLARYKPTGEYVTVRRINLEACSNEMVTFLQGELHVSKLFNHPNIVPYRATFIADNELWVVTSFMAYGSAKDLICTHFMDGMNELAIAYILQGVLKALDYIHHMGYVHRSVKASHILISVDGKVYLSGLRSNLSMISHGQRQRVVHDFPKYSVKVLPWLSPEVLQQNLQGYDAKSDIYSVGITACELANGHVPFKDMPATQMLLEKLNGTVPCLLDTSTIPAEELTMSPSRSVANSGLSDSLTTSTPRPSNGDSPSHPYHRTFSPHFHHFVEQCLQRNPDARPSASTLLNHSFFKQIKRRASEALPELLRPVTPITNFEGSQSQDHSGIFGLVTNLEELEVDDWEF

Test [2] deals with T2, Membrane-associated tyrosine- and threonine-specific cdc2-inhibitory kinase (Homo sapiens, UniProt Q99640).
T2 sequence (Q99640 whole entry): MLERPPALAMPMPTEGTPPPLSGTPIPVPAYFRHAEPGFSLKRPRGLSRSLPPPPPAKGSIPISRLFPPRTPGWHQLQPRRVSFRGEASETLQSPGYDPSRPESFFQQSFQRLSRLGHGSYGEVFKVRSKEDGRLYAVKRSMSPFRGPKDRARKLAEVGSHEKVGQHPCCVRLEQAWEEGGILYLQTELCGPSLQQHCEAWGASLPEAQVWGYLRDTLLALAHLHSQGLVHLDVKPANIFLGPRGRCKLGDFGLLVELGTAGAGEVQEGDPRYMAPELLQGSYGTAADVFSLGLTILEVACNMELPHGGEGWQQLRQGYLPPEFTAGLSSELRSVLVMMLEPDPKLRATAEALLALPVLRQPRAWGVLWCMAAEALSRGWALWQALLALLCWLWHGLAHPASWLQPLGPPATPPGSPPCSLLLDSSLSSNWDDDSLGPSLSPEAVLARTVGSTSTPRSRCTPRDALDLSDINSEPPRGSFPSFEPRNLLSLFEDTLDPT

Test [3] addresses T3, Dual specificity mitogen-activated protein kinase kinase 3 (Homo sapiens, UniProt P46734).
T3 sequence (P46734 whole entry): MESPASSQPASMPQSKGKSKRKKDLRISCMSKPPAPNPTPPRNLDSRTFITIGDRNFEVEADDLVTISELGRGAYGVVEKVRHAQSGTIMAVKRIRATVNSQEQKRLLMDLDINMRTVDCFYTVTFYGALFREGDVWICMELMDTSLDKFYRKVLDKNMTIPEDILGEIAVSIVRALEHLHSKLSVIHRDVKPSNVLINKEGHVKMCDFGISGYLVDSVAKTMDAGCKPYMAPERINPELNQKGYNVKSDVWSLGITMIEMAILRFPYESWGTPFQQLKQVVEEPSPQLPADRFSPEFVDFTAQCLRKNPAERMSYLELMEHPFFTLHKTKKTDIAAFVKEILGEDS

The target in test [4] is Mitogen-activated protein kinase kinase kinase 1 (Homo sapiens, UniProt Q13233).
Mitogen-activated protein kinase kinase kinase 1, sequence (Q13233 whole entry): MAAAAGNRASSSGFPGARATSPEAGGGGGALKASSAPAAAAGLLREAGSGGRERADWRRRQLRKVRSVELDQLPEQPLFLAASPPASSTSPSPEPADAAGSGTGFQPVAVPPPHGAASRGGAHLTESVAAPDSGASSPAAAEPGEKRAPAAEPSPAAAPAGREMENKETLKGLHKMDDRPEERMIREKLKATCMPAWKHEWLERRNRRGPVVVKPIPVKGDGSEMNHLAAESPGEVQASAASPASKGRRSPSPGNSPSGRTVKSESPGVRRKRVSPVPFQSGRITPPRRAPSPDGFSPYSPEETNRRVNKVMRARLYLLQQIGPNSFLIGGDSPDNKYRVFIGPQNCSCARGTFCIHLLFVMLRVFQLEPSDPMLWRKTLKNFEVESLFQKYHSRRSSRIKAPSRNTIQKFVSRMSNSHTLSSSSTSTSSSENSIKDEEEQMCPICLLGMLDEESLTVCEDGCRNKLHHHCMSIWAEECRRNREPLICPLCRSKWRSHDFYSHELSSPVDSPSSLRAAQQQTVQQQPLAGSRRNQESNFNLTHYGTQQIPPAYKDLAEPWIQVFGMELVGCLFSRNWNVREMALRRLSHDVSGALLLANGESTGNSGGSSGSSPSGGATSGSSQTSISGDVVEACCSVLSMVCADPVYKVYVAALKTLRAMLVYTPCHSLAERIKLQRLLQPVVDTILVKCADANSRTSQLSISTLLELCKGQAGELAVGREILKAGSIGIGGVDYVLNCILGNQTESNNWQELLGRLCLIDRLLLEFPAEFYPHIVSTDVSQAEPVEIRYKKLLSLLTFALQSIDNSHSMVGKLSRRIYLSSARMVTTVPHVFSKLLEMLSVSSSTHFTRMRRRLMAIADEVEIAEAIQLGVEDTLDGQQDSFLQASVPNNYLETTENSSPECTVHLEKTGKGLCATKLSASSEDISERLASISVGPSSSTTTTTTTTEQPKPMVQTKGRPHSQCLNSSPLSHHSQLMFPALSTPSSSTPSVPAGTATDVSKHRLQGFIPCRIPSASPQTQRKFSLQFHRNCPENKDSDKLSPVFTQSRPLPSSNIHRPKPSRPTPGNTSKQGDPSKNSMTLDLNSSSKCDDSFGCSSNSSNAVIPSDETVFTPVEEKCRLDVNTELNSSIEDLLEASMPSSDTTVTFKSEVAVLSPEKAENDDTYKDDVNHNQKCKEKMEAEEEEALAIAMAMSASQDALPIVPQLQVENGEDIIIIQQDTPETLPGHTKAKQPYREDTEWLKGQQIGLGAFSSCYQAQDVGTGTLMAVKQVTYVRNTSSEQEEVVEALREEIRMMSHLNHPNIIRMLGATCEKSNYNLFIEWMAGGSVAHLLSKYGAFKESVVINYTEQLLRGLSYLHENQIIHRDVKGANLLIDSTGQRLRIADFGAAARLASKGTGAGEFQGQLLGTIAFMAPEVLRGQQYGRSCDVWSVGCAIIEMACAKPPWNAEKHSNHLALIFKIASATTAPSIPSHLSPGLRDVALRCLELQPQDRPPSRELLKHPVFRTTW
In test [5] the target is Mitogen-activated protein kinase 1 (Homo sapiens, UniProt P28482).
Mitogen-activated protein kinase 1, sequence (P28482 whole entry): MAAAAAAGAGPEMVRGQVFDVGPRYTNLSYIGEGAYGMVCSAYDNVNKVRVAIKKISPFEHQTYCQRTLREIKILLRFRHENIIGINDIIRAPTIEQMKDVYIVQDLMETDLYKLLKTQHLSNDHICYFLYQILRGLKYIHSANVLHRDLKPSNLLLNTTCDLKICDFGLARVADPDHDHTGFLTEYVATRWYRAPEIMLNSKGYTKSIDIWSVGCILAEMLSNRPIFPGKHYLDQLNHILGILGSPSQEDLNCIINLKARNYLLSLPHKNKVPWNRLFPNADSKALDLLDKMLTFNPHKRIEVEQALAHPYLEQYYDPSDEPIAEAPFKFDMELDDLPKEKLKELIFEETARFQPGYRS
Test [6] addresses Cyclin-dependent kinase 5 (Homo sapiens, UniProt Q00535).
For test [7], the target named is T4, Serine/threonine-protein kinase Nek1 (Homo sapiens, UniProt Q96PY6).
T4 sequence (Q96PY6 whole entry): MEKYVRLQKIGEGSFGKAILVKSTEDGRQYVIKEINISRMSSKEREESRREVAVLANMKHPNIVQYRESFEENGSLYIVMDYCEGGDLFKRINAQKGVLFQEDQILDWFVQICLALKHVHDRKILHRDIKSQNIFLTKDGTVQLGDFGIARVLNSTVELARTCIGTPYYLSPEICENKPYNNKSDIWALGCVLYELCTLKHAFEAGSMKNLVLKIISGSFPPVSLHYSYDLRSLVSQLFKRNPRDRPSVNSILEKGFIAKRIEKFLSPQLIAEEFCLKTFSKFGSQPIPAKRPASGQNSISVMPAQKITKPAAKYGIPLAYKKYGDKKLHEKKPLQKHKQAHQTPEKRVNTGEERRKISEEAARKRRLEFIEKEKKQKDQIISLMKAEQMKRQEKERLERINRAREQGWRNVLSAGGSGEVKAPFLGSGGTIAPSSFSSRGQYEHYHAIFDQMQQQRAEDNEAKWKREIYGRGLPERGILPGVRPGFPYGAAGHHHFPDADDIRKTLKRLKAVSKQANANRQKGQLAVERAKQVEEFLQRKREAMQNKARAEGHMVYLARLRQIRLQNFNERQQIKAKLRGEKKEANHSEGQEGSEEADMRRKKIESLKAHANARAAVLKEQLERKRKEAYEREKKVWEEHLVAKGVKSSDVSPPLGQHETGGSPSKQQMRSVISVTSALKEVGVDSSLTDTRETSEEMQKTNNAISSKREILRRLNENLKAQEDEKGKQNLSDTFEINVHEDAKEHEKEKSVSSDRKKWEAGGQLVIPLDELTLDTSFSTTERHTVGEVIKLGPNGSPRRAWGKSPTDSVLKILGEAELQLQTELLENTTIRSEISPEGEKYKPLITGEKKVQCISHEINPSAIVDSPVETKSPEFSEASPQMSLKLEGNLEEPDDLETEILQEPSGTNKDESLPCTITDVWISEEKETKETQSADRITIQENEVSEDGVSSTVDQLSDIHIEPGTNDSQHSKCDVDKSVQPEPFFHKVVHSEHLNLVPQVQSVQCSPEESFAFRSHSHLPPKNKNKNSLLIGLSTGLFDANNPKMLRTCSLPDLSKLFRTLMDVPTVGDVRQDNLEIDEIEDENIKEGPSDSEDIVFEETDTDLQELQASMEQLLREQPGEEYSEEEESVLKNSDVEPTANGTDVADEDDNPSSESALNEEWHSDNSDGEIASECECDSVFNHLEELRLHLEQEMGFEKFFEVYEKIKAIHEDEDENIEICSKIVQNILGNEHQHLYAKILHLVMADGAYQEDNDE

The target of test [8] is Ras-related protein Rab-6A (Homo sapiens, UniProt P20340).
Ras-related protein Rab-6A, sequence (P20340 whole entry): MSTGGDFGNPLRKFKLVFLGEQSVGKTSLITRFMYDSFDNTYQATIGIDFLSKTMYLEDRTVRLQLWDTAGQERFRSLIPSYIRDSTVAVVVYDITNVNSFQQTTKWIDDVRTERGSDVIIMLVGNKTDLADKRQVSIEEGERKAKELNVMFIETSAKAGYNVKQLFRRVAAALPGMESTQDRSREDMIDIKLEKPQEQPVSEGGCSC
Note: in the data inactive means no Kd found up to 30 µM.

Cyclin-dependent kinase 5, sequence (Q00535 whole entry): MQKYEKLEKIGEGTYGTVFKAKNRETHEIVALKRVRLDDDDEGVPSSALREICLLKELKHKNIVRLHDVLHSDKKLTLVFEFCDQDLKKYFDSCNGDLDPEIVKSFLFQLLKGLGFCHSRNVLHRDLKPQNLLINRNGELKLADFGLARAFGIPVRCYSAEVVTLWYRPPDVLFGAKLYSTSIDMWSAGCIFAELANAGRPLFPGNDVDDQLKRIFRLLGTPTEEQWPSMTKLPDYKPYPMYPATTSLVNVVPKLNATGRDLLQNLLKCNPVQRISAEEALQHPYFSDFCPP

Take `C[C@@H]1COC(Nc2ccc3ncnc(Nc4ccc(OCc5nccs5)c(Cl)c4)c3c2)=N1` [VARLITINIB]: the Kd in test [1], in test [2], in test [3], in test [4], in test [5] and in test [6] was > 30 µM (inactive) in each case. The Kd in test [7] and in test [8] was > 30 µM (inactive) in each case.

Regarding `NC(=O)c1ccc(N(C(N)=O)c2c(F)cccc2F)nc1-c1ccc(F)cc1F` [VX-702], the Kd in test [1], in test [2], in test [3], in test [4], in test [5] and in test [6] was > 30 µM (inactive) throughout. Further, the Kd in test [7] and in test [8] was > 30 µM (inactive) in each case.

For `C=CC(=O)Nc1cc(Nc2nccc(-c3cn(C)c4ccccc34)n2)c(OC)cc1N(C)CCN(C)C` [OSIMERTINIB], the Kd in test [1], in test [2], in test [3], in test [4], in test [5] and in test [6] was > 30 µM (inactive) each time. Further, the Kd in test [7] and in test [8] was > 30 µM (inactive) in each case.

On to `COCCN1CCN(Cc2ccc(-c3n[nH]c4c3C(=O)c3c(NC(=O)NN5CCOCC5)cccc3-4)cc2)CC1` [RGB-286638], for which the Kd in test [1] was > 30 µM (inactive); in test [2], > 30 µM (inactive); in test [3], > 30 µM (inactive); in test [4], > 30 µM (inactive); in test [5], > 30 µM (inactive); in test [6], 0.318 µM (active). The Kd in test [7] and in test [8] was > 30 µM (inactive) each time.

Turning to `Cn1c(=O)c(F)c(Nc2ccc(I)cc2F)c2c(=O)n(C[C@@H](O)CO)cnc21` [TAK-733], the Kd in test [1], in test [2], in test [3], in test [4], in test [5] and in test [6] was > 30 µM (inactive) throughout. For the same compound, the Kd in test [7] and in test [8] was > 30 µM (inactive) each time.

Take `COc1cc(Nc2ncc(F)c(Nc3ccc4c(n3)N(COP(=O)(O)O)C(=O)C(C)(C)O4)n2)cc(OC)c1OC` [FOSTAMATINIB]: the Kd in test [1], in test [2], in test [3], in test [4], in test [5] and in test [6] was > 30 µM (inactive) each time. Further, the Kd in test [7] and in test [8] was > 30 µM (inactive) each time.

For `C#Cc1cccc(Nc2ncnc3cc4c(cc23)OCCOCCOCCO4)c1` [ICOTINIB], the Kd in test [1] is > 30 µM (inactive); in test [2] it was > 30 µM (inactive); in test [3], > 30 µM (inactive); in test [4], 4.13 µM (active); in test [5], > 30 µM (inactive); in test [6], > 30 µM (inactive). Moreover, the Kd in test [7] and in test [8] was > 30 µM (inactive) each time.

Take `FC(F)(F)c1ccc(CNc2ccc(Cc3c[nH]c4ncc(Cl)cc34)cn2)cn1` [PEXIDARTINIB]: the Kd in test [1], in test [2], in test [3], in test [4], in test [5] and in test [6] was > 30 µM (inactive) in each case. Besides, the Kd in test [7] and in test [8] was > 30 µM (inactive) in each case.

On to `CC(C)(O)CC(=O)NCCn1ccc2ncnc(Nc3ccc(Oc4cccc(C(F)(F)F)c4)c(Cl)c3)c21` [TAK-285], for which the Kd in test [1], in test [2], in test [3], in test [4], in test [5] and in test [6] was > 30 µM (inactive) in each case. For the same compound, the Kd in test [7] and in test [8] was > 30 µM (inactive) in each case.

With `Cc1cc(C(=O)Nc2cc(Oc3ccc4nc(NC(=O)C5CC5)cn4n3)ccc2C)n(C)n1` [TAK-593], the Kd in test [1], in test [2], in test [3], in test [4], in test [5] and in test [6] was > 30 µM (inactive) in each case. Moreover, the Kd in test [7] is 0.365 µM (active); in test [8] it was > 30 µM (inactive).

Regarding `CCc1nc(C(N)=O)c(Nc2ccc(N3CCC(N4CCN(C)CC4)CC3)c(OC)c2)nc1NC1CCOCC1` [GILTERITINIB], the Kd in test [1], in test [2], in test [3], in test [4], in test [5] and in test [6] was > 30 µM (inactive) in each case. The Kd in test [7] and in test [8] was > 30 µM (inactive) in each case.

Consider `COc1cc(F)c(F)c(Nc2ccc(I)cc2F)c1NS(=O)(=O)C1(C[C@H](O)CO)CC1` [REFAMETINIB], for which the Kd in test [1], in test [2], in test [3], in test [4], in test [5] and in test [6] was > 30 µM (inactive) each time. The Kd in test [7] and in test [8] was > 30 µM (inactive) each time.

In the case of `COc1cc2ncnc3c2cc1OCCCCCN(C)Cc1ccc(Br)cc1N3` [JNJ-26483327], the Kd in test [1], in test [2], in test [3], in test [4], in test [5] and in test [6] was > 30 µM (inactive) throughout. The Kd in test [7] and in test [8] was > 30 µM (inactive) each time.

The Kd is the equilibrium constant for the complex coming apart.
